For data set [1], the target named is T1, recombinant human 11beta-HSD1 (Homo sapiens, UniProt P28845).
T1 construct: Full length recombinant human 11β-HSD1 cDNAs and the cDNA encoding human 11β-HSD2 were expressed stably in HEK 293 EBNA cells; made in house; microsome fraction used
As to the kind of experiment: 11β-HSD1 SPA enzyme assay (in vitro inhibition of recombinant human 11beta-HSD1). It is filed as biochemical. The settings on record: human 11β-HSD1 microsomes from HEK 293 EBNA cells, 3H-cortisone 40 nM, 4 hrs room temperature. On the procedure:
The in vitro inhibition of recombinant human 11beta-HSD1 was determined as follows.
The supernatant was further centrifuged at 105,000×g for […]. The 105,000×g pellet was resuspended in buffer H and centrifuged at 105,000×g for 60 min. […] Aliquots were stored at −80° C. until needed. The protein concentration was measured by the BioRad method using BSA standard.
Compounds were dissolved in DMSO to obtain 10 mM stock concentrations. From the 10 mM stock, the compounds were diluted in DMSO to achieve the concentrations.
11β-HSD1 SPA Enzyme Assay
11β-HSD1 was assayed by Scintillation Proximity assay in a 384-well Perkin Elmer white plate. The dose response of the compounds was determined using 11 half-log dilutions of compound in DMSO in duplicate. To each well, 0.5 μl of compound dilution in DMSO were added. 15 μl of assay buffer (for blanks) or 15 μl of human microsomes in assay buffer were added next and the plates were incubated for 10 min at room temperature. The final microsomal protein concentration was 1.1 μg/assay. Duplicates were in the same plate one row below the other. 10 μl of ^3H-cortisone (final concentration 40 nM) was added to each well and the plate was spun down to mix and bring down the contents to the bottom of the wells. The plates were incubated at room temperature with gentle shaking for 4 hrs. […] Then, 0.5 mg of yttrium silicate SPA beads coupled to anti-cortisol antibody in 20 μl were added to all the wells of plate, which were spun down once more and incubated at room temperature overnight. The plate was read in a TopCount® (1 min/well). Data were uploaded automatically to Tool Set, a Lead Evaluation informatics program for data capture and calculation. Graphs were generated with the Curve Master program.

For the next data set, the target named is T2, 11beta-HSD1 (Mus musculus, UniProt P50172).
T2 construct: from tissue; host or cells: whole animal: diet induced obese (DIO) mice, Jackson Laboratory
As to the kind of experiment: In vivo inhibition of 11beta-HSD1: DHC to corticosterone conversion in DIO mice. The note with it: 30 mpk oral, plasma corticosterone AUC after DHC 10 mg/kg given 60 minutes post compound. On the procedure:
The in vivo inhibition of […] 11beta-HSD1 was determined as follows.
Studies were conducted utilizing diet induced obese (DIO) mice obtained from Jackson Laboratory (ME, USA). These mice were fed a 60% fat diet (Research Diets D12492) soon after weaning and kept on this diet for 24 weeks. These mice were individually housed. […]. The animals continued on this diet and were utilized for experimentation at 30 to 32 weeks of age, at which time these mice weighed 45 to 55 grams.
The basic model of 11-dehydrocorticosterone (DHC) administration to mice to produce corticosterone has been reported in the literature for clinical and preclinical evaluation of the activity of 11β-HSD. […] Plasma was separated and collected and immediately frozen at −20° C. until corticosterone analysis could be assessed.
Plasma Corticosterone was measured using an EIA (IDS AC-14F1). Samples were measured at (1:2) for the −30(or −60 minute) and 0 time point and (1:10) for the 30, 60 and 120 minutes time points. AUC was calculated using Graphpad and the zero timepoint was used as the baseline. One way ANOVA was calculated using Sigmastat. […]
The vehicle utilized for the suspension of the compounds was 0.5% methocel; 0.1% tween 80 in water. […] Compounds were administered in 7.5 ml/kg volumes at final dosages of 0.1 to 300 mg/kg depending on the study and compound evaluated.

The nature of the next data set: Moisture sorption study. Format: physicochemical. The note with it: Form N-1 of the HCl salt; range from about 25 to about 75% RH at 25° C. On the procedure: Moisture sorption isotherms were collected in a VTI SGA-100 Symmetric Vapor Analyzer using approximately 10 mg of sample. The sample was dried at 60° C. until the loss rate of 0.0005 wt %/min was obtained for 10 minutes. The sample was tested at 25° C. and 3 or 4, 5, 15, 25, 35, 45, 50, 65, 75, 85, and 95% RH. Equilibration at each RH was reached when the rate of 0.0003 wt %/min for 35 minutes was achieved or a maximum of 600 minutes.

Molecules are shown by their SMILES.

T1 sequence (P28845 whole entry): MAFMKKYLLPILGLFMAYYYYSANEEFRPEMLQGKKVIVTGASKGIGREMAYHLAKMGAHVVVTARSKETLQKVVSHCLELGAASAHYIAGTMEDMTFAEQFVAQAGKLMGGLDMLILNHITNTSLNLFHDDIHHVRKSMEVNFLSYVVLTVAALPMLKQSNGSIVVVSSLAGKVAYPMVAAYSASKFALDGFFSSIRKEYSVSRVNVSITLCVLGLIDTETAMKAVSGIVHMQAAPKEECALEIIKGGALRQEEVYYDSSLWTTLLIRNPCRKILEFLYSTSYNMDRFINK
T2 sequence (P50172 whole entry): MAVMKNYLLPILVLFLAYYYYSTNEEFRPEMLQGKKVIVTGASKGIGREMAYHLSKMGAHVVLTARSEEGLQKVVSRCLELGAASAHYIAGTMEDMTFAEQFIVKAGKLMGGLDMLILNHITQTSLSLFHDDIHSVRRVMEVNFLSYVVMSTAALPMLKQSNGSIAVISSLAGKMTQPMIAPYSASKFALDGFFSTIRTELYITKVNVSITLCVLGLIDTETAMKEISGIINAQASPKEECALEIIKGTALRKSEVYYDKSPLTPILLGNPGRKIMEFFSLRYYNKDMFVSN

Consider `CC(C)(O)c1cccn2c(C3(c4ccc(-c5ccc(F)cc5)cc4)CC3)nnc12` [Example 51], for which the IC50 in data set [1] is 0.4 nM. The same measure, in the same setting: the same measure for `CC(C)(O)c1cccn2c(C3(c4ccc(Cl)c(Cc5nnn[nH]5)c4)CC3)nnc12` [Example 42]: 72 nM; for `CC(C)(O)c1cccc2c(C3(c4ccc(Cl)cc4)CC3)nnn12` [Example 6, 2-(3-(1-(4-Chlorophenyl)cyclopropyl)-[1,2,3]-triazolo[1,5-a]pyridin-7-yl) propan-2-ol]: 20 nM; for `CC(C)(O)c1cccn2c(C3(c4nc(-c5ccccc5)c[nH]4)CC3)nnc12` [Example 104]: 191 nM. Still for that read-out and setting: the same measure for `CC(C)(O)c1cccn2c(C3(c4nc(-c5ccc(Cl)cc5)cs4)CC3)nnc12` [Example 111]: 0.5 nM.

Take `CC(C)(O)c1cccn2c(C3(c4ccc(Cl)cc4)CC3)nnc12` [Example 1, 2-(3-(1-(4-Chlorophenyl)cyclopropyl)-[1,2,4]triazolo[4,3-a]pyridin-8-yl) propan-2-ol]: in data set [1], the IC50 was 2.3 nM. The inhibition at 30 mg/kg at 11beta-HSD1 was 53%. Consider `CC(C)(O)c1cccn2c(C3(c4ccc(Cl)cc4)CC3)nnc12.Cl` [Example 1G, 2-(3-(1-(4-Chlorophenyl)cyclopropyl)-[1,2,4]triazolo[4,3-a]pyridin-8-yl)propan-2-ol HCl Salt], for which the “hygroscopicity (moisture sorption isotherm)” value in the data set “Moisture sorption study” is recorded as “non-hygroscopic”.

Consider `CC(C)(O)c1cccn2c(C3(c4nnn(Cc5ccccc5)n4)CC3)nnc12` [Example 112], for which the IC50 in data set [1] worked out at 2820 nM.

As to `CC(C)(O)c1cccn2c(C3(c4nnn(Cc5ccc(F)cc5)n4)CC3)nnc12` [Example 110], the IC50 in data set [1] is 104 nM. Consider `CC(C)(O)c1cccn2c(C3(c4ccc(Cl)cc4F)CC3)nnc12` [Example 54], for which the IC50 in data set [1] stood at 0.7 nM. The same measure, in the same setting: the same measure for `CN(C)C(=O)c1ccc(C2(c3nnc4c(C(C)(C)O)cccn34)CC2)cc1` [Example 86]: 35 nM; for `CC(C)(c1cccn2c(C3(c4ccc(Cl)cc4)CCC3)nnc12)c1nnnn1CCC#N` [Example 59]: 5490 nM; for `CC(C)(O)c1cccn2c(C3(C(=O)O)CC3)nnc12` [Example 80]: 7700 nM.

For `CC(C)(O)c1cccn2c(C3(c4nc(-c5ccc(F)cc5)cs4)CC3)nnc12` [Example 109], the IC50 in data set [1] was found to be 0.6 nM. Regarding `Cc1ccc(S(=O)(=O)C2(c3nnc4c(C(C)(C)O)cccn34)CC2)cc1C` [Example 90], the concentration for half-maximal inhibition (IC50) in data set [1] stood at 1380 nM. In turn, `CC(C)(O)c1cccn2c(C3(c4ccc(Cl)cc4)CCC3)nnc12` [Example 11] had an inhibition at 30 mg/kg at 11beta-HSD1 of 69%.

The values above are taken from patent publication US8541444B2, “Triazolopyridine 11-beta hydroxysteroid dehydrogenase type I inhibitors” (Bristol-Myers Squibb Company, priority 2007, dated 2013).
